Reference: US12194048B2, “Use of pyrrolopyridine derivatives for preventing or treating inflammatory diseases” (VORONOI CO., LTD., priority 2020, dated 2025)

Columns and labels:
[1] = Metabolic stability (MS) evaluation; format: in vitro ADME
[2] = tested on: house dust mite-induced atopic dermatitis model; assay: House dust mite-induced atopic dermatitis model; format: in vivo, NC/Nga mice
Experimental: The backs and ears of NC/Nga mice aged 8 weeks were shaved, and 0.1 g house dust mite cream was applied once every three days for a total of seven times to induce atopic dermatitis. For the negative control group where dermatitis was not induced, a cream not including house dust mites was applied. […] To the comparative control group, the JAK1 inhibitor upadacitinib was orally administered at 6 mg/kg twice daily for 14 days.
After inducing atopic dermatitis using house dust mite cream, symptoms as well as the state of the skin of the cars and backs were scored twice weekly starting from the initial date of administration; the measurements were added and the means are shown in FIG. 9. Furthermore, on the date of termination of the experiment, skin tissue and serum were collected to observe the level of expression of inflammatory cytokines in the tissue and the level of expression of IgE in serum using ELISA analysis; the results are shown in FIG. 10.

PHKG1 = target: T1, PHKG1 (Homo sapiens, UniProt Q16816); assay: scanMAX Kinase analysis panel (DiscoverX); format: binding; conditions: drug 1 μM in DMSO; from % control
T1 construct: purchased DiscoverX scanMAX Kinase analysis panel
From the text: (§1) [(Example compound−positive control)/(negative control−positive control)×100]

STK33 = target: T2, STK33 (Homo sapiens, UniProt Q9BYT3); assay: scanMAX Kinase analysis panel (DiscoverX); format: binding; conditions: drug 1 μM in DMSO; from % control
T2 construct: purchased DiscoverX scanMAX Kinase analysis panel
From the text: as §1

ALK = target: T3, ALK (Homo sapiens, UniProt Q9UM73); assay: scanMAX Kinase analysis panel (DiscoverX); format: binding; conditions: drug 1 μM in DMSO; from % control
T3 construct: purchased DiscoverX scanMAX Kinase analysis panel
From the text: as §1

ABL1-nonphosphorylated = target: T4, ABL1-nonphosphorylated (Homo sapiens, UniProt P00519); assay: scanMAX Kinase analysis panel (DiscoverX); format: binding; conditions: drug 1 μM in DMSO; from % control
T4 construct: purchased DiscoverX scanMAX Kinase analysis panel
From the text: as §1

CSNK1D = target: T5, CSNK1D (Homo sapiens, UniProt P48730); assay: scanMAX Kinase analysis panel (DiscoverX); format: binding
T5 construct: purchased DiscoverX scanMAX Kinase analysis panel
From the text: as §1

LTK = target: T6, LTK (Homo sapiens, UniProt P29376); assay: scanMAX Kinase analysis panel (DiscoverX); format: binding; conditions: drug 1 μM in DMSO; from % control
T6 construct: purchased DiscoverX scanMAX Kinase analysis panel
From the text: as §1

[3] = target: T7, JAK1(JH2domain-pseudokinase) (Homo sapiens, UniProt P23458); assay: scanMAX Kinase analysis panel (DiscoverX); format: binding; conditions: drug 1 μM in DMSO; from % control
T7 construct: JAK1 (JH2domain-pseudokinase); purchased DiscoverX
From the text: as §1

CAMKK2 = target: T8, CAMKK2 (Homo sapiens, UniProt Q96RR4); assay: scanMAX Kinase analysis panel (DiscoverX); format: binding; conditions: drug 1 μM in DMSO; from % control
T8 construct: purchased DiscoverX scanMAX Kinase analysis panel
From the text: as §1

JNK3 = target: T9, JNK3 (Homo sapiens, UniProt P53779); assay: scanMAX Kinase analysis panel (DiscoverX); format: binding; conditions: drug 1 μM in DMSO; from % control
T9 construct: purchased DiscoverX
From the text: as §1

ALK(L1196M) = target: T10, ALK(L1196M) (Homo sapiens, UniProt Q9UM73, L1196M); assay: scanMAX Kinase analysis panel (DiscoverX); format: binding; conditions: drug 1 μM in DMSO; from % control
T10 construct: purchased DiscoverX scanMAX Kinase analysis panel
From the text: as §1

LRRK2(G2019S) = target: T11, LRRK2(G2019S) (Homo sapiens, UniProt Q5S007, G2019S); assay: scanMAX Kinase analysis panel (DiscoverX); format: binding; conditions: drug 1 μM in DMSO; from % control
T11 construct: purchased DiscoverX scanMAX Kinase analysis panel
From the text: as §1

MAPKAPK2 = target: T12, MAPKAPK2 (Homo sapiens, UniProt P49137); assay: scanMAX Kinase analysis panel (DiscoverX); format: binding; conditions: drug 1 μM in DMSO; from % control
T12 construct: purchased DiscoverX
From the text: as §1

PHKG2 = target: T13, PHKG2 (Homo sapiens, UniProt P15735); assay: scanMAX Kinase analysis panel (DiscoverX); format: binding; conditions: drug 1 μM in DMSO; from % control
T13 construct: purchased DiscoverX scanMAX Kinase analysis panel
From the text: as §1

JNK1 = target: T14, JNK1 (Homo sapiens, UniProt P45983); assay: scanMAX Kinase analysis panel (DiscoverX); format: binding; conditions: drug 1 μM in DMSO; from % control
T14 construct: purchased DiscoverX scanMAX Kinase analysis panel
From the text: as §1

CHEK2 = target: T15, CHEK2 (Homo sapiens, UniProt O96017); assay: scanMAX Kinase analysis panel (DiscoverX); format: binding; conditions: drug 1 μM in DMSO; from % control
T15 construct: purchased DiscoverX scanMAX Kinase analysis panel
From the text: as §1

STK39 = target: T16, STK39 (Homo sapiens, UniProt Q9UEW8); assay: scanMAX Kinase analysis panel (DiscoverX); format: binding; conditions: drug 1 μM in DMSO; from % control
T16 construct: purchased DiscoverX
From the text: as §1

INSR = target: T17, INSR (Homo sapiens, UniProt P06213); assay: scanMAX Kinase analysis panel (DiscoverX); format: binding; conditions: drug 1 μM in DMSO; from % control
T17 construct: purchased DiscoverX
From the text: as §1

HUNK = target: T18, HUNK (Homo sapiens, UniProt P57058); assay: scanMAX Kinase analysis panel (DiscoverX); format: binding; conditions: drug 1 μM in DMSO; from % control
T18 construct: purchased DiscoverX
From the text: as §1

MYLK = target: T19, MYLK (Homo sapiens, UniProt Q15746); assay: scanMAX Kinase analysis panel (DiscoverX); format: binding; conditions: drug 1 μM in DMSO; from % control
T19 construct: purchased DiscoverX scanMAX Kinase analysis panel
From the text: as §1

PLK4 = target: T20, PLK4 (Homo sapiens, UniProt O00444); assay: scanMAX Kinase analysis panel (DiscoverX); format: binding; conditions: drug 1 μM in DMSO; from % control
T20 construct: purchased DiscoverX
From the text: as §1

JNK2 = target: T21, JNK2 (Homo sapiens, UniProt P45984); assay: scanMAX Kinase analysis panel (DiscoverX); format: binding; conditions: drug 1 μM in DMSO; from % control
T21 construct: purchased DiscoverX
From the text: as §1

CAMK2D = target: T22, CAMK2D (Homo sapiens, UniProt Q13557); assay: scanMAX Kinase analysis panel (DiscoverX); format: binding; conditions: drug 1 μM in DMSO; from % control
T22 construct: purchased DiscoverX scanMAX Kinase analysis panel
From the text: as §1

LRRK2 = target: T23, LRRK2 (Homo sapiens, UniProt Q5S007); assay: scanMAX Kinase analysis panel (DiscoverX); format: binding; conditions: drug 1 μM in DMSO; from % control
T23 construct: purchased DiscoverX
From the text: as §1

PAK2 = target: T24, PAK2 (Homo sapiens, UniProt Q13177); assay: scanMAX Kinase analysis panel (DiscoverX); format: binding; conditions: drug 1 μM in DMSO; from % control
T24 construct: purchased DiscoverX scanMAX Kinase analysis panel
From the text: as §1

GAK = target: T25, GAK (Homo sapiens, UniProt O14976); assay: scanMAX Kinase analysis panel (DiscoverX); format: binding; conditions: drug 1 μM in DMSO; from % control
T25 construct: purchased DiscoverX scanMAX Kinase analysis panel
From the text: as §1

ERK5 = target: T26, ERK5 (Homo sapiens, UniProt Q13164); assay: scanMAX Kinase analysis panel (DiscoverX); format: binding; conditions: drug 1 μM in DMSO; from % control
T26 construct: purchased DiscoverX
From the text: as §1

ALK(C1156Y) = target: T27, ALK(C1156Y) (Homo sapiens, UniProt Q9UM73, C1156Y); assay: scanMAX Kinase analysis panel (DiscoverX); format: binding; conditions: drug 1 μM in DMSO; from % control
T27 construct: purchased DiscoverX scanMAX Kinase analysis panel
From the text: as §1

CSNK1A1 = target: T28, CSNK1A1 (Homo sapiens, UniProt P48729); assay: scanMAX Kinase analysis panel (DiscoverX); format: binding; conditions: drug 1 μM in DMSO; from % control
T28 construct: purchased DiscoverX scanMAX Kinase analysis panel
From the text: as §1

[4] = Metabolic stability (MS) evaluation; format: in vitro ADME; remark: listed apart in the source
[5] = tested on: IMQ-induced psoriasis-like skin inflammation model; assay: Oral treatment in imiquimod (IMQ)-induced psoriasis-like skin inflammation; format: in vivo, BALB/c mice
Experimental: The positive control, methotrexate at 2 mg/kg and tofacitinib at 5 mg/kg were administered by oral gavage twice (BID) daily during the same study period.
Fifteen (15) mg Imiquimod (IMQ) cream (5%) (Aldara; 3M Pharmaceuticals) was topically (TOP) administered once daily (QD) on the right ear one hour after treatment from Day 1 to Day 9 for 9 consecutive days, translating to a daily dose of 0.75 mg of the active compound. Ear swelling was measured on Day 0 and thereafter 30 min before dosing on Days 2, 4, 6 and 8. On Day 10, ear swelling was measured 24 hours after the last dosing.

T10 sequence (Q9UM73 19-1620 L1196M): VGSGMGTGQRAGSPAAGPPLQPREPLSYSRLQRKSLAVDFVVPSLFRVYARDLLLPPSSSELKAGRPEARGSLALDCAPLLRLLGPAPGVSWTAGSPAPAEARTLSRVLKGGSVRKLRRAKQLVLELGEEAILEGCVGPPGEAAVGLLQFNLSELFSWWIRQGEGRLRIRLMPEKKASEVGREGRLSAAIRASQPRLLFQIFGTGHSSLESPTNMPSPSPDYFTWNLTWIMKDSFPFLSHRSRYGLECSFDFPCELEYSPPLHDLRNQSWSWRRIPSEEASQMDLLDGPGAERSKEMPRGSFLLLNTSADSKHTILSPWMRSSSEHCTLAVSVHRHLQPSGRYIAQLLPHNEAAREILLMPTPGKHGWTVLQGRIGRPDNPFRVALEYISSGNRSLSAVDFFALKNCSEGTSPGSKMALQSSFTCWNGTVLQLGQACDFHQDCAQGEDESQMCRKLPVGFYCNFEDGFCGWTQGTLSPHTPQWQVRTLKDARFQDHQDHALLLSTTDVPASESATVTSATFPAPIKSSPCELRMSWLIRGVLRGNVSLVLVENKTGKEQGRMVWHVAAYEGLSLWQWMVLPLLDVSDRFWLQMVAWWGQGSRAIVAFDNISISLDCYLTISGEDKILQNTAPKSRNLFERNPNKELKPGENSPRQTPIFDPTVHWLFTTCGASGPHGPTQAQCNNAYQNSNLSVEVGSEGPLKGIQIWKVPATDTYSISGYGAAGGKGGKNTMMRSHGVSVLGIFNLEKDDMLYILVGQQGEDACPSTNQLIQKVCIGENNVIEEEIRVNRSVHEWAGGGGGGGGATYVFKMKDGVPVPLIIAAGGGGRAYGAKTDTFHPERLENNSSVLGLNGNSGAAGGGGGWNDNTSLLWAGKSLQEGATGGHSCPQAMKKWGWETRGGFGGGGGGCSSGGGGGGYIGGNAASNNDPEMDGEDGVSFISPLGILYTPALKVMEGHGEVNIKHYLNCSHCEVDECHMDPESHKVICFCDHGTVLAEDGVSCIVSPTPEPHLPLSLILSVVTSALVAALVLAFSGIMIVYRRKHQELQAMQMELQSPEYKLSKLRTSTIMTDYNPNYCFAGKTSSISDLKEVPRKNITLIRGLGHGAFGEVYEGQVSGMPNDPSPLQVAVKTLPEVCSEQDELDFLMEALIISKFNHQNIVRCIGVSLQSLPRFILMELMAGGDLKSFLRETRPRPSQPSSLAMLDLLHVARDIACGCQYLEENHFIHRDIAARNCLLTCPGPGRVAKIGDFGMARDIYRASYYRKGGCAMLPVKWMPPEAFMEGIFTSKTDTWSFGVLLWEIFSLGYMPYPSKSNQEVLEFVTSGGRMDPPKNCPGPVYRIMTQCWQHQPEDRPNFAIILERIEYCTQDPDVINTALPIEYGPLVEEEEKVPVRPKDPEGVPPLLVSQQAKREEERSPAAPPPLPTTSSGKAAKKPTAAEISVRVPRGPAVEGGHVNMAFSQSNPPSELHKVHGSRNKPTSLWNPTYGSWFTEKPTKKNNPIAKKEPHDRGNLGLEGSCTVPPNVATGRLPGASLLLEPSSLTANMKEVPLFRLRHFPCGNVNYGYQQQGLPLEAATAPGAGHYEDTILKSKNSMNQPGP
T12 sequence (P49137 whole entry): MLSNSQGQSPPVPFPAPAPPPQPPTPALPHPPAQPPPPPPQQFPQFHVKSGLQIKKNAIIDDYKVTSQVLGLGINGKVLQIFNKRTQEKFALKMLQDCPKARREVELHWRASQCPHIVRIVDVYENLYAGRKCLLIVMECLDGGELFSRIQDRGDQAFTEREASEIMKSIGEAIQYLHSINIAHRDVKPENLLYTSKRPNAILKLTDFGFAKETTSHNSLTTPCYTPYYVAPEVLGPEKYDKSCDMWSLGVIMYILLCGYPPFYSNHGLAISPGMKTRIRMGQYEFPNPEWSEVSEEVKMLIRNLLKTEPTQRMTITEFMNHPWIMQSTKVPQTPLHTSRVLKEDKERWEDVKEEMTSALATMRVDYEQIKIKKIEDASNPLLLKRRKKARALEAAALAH
T20 sequence (O00444 whole entry): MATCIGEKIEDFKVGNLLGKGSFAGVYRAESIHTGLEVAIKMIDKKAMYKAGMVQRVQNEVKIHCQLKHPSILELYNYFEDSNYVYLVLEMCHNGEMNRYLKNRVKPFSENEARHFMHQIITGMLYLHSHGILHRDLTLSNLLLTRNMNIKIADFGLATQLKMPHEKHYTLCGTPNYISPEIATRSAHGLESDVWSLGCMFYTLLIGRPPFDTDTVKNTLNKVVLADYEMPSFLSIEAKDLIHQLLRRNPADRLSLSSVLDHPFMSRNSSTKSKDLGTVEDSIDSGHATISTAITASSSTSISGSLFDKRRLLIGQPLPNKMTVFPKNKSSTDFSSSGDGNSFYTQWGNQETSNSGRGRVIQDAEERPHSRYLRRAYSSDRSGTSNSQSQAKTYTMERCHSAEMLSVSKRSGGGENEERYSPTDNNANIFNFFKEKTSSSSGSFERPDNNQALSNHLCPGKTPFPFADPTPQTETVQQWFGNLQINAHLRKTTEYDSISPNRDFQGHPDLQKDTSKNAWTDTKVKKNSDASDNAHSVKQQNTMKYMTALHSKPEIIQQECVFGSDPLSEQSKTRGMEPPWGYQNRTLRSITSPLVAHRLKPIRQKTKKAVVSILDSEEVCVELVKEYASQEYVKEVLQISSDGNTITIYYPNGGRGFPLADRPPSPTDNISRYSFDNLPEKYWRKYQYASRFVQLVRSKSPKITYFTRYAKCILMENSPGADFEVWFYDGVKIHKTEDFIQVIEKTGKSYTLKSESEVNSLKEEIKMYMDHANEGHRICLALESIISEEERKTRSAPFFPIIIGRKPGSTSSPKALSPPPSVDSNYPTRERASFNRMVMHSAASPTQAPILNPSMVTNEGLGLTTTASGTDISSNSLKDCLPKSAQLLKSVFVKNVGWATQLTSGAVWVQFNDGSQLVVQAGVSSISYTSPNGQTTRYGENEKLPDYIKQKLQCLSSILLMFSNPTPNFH
T7 sequence (P23458 583-855 limits assumed): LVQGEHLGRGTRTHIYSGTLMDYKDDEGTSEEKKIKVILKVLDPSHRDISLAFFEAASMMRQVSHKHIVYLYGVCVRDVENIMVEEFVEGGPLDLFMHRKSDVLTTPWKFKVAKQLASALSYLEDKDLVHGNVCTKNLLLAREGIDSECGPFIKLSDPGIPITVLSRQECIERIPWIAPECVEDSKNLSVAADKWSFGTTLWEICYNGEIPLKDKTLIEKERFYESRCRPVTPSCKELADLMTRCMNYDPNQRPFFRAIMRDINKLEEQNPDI
T2 sequence (Q9BYT3 whole entry): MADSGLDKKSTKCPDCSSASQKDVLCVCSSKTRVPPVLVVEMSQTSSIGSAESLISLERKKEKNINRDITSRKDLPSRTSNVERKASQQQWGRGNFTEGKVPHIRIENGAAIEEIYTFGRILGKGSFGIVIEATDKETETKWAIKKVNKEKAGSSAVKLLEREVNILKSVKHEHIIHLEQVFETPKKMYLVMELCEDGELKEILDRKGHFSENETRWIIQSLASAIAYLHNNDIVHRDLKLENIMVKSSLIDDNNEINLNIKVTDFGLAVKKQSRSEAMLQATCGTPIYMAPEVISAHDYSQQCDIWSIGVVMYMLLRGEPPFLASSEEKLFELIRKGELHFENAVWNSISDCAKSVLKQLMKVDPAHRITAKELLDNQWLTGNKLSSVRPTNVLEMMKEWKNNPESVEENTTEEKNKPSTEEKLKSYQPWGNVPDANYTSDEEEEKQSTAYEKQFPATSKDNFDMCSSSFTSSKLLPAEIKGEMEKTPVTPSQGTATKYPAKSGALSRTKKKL
T25 sequence (O14976 whole entry): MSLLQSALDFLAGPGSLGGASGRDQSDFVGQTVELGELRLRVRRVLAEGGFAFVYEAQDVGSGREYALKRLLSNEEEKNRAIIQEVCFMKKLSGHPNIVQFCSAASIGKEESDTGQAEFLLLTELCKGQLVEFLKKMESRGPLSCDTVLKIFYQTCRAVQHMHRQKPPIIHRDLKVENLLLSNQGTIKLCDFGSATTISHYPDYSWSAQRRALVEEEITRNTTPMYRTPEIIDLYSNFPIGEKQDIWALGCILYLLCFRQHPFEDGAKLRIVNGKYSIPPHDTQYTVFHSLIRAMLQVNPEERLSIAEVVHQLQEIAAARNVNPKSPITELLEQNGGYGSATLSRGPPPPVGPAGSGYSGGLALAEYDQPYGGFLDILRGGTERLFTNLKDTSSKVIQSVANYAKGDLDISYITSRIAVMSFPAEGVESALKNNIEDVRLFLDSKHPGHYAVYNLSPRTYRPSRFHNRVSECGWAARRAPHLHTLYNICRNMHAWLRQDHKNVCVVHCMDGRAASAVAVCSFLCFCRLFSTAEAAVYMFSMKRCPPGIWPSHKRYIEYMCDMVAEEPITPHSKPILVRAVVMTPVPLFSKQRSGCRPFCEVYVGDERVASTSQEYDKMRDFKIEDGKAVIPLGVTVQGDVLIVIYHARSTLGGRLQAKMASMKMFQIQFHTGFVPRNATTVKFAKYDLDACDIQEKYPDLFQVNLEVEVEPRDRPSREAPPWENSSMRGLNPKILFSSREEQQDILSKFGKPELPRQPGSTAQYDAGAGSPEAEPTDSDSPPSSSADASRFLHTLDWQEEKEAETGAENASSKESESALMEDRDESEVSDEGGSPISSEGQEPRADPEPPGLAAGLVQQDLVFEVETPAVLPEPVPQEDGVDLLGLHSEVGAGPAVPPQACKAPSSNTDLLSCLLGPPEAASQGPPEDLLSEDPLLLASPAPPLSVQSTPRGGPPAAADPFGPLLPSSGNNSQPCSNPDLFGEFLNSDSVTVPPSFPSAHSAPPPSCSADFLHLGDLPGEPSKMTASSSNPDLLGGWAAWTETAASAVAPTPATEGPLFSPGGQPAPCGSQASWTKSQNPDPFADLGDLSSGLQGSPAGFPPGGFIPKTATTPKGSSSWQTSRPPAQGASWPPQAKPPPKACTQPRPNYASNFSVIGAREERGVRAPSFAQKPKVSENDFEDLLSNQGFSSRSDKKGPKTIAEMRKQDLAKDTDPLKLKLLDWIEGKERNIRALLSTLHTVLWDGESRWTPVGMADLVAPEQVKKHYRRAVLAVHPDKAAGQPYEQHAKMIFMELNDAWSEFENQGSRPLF

## CCNc1cc(Nc2ccc(C(=O)N3CCC(N4CCOCC4)CC3)cc2OC)nc2[nH]cc(C(F)(F)F)c12 [Compound 1, (4-((4-(ethylamino)-3-(trifluoromethyl)-1H-pyrrolo[2,3-b]pyridine-6-yl)amino)-3-methoxyphenyl)(4-morpholinopiperidine-1-yl)methanone]
[1]
  MS (1 μM) (% remaining during 30 min) Mouse: 40%
[2]; 10, 20 and 30 mpk orally twice daily for 14 days, FIG. 9
  dermatitis on the back and ears: alleviated in a concentration-dependent manner
[2]; 10, 20 and 30 mpk, ELISA, FIG. 10
  IgE expression in serum: concentration-dependent reduction
[2]; 30 mpk orally twice daily for 14 days
  alleviating dermatitis: most effective
[2]; 30 mpk, ELISA, FIG. 10
  IgE expression in serum: statistically significant reduction
[2]; 30 mpk, against the control group, ELISA, FIG. 10
  inflammatory cytokine expression in the back tissue: statistically significant reduction
[2]; upadacitinib 6 mg/kg orally twice daily for 14 days
  alleviating atopic dermatitis, compared with upadacitinib control group: more effective
PHKG1
  inhibition at 1 µM: ≥ 59%
STK33
  inhibition at 1 µM: ≥ 59%
ALK
  inhibition at 1 µM: ≥ 59%
ABL1-nonphosphorylated
  inhibition at 1 µM: 40 to 59%
CSNK1D
  inhibition at 1 µM: ≥ 59%
LTK
  inhibition at 1 µM: ≥ 59%
[3]
  inhibition at 1 µM: 40 to 59%
CAMKK2
  inhibition at 1 µM: 40 to 59%
JNK3
  inhibition at 1 µM: 40 to 59%
ALK(L1196M)
  inhibition at 1 µM: ≥ 59%
LRRK2(G2019S)
  inhibition at 1 µM: ≥ 59%
MAPKAPK2
  inhibition at 1 µM: 40 to 59%
PHKG2
  inhibition at 1 µM: ≥ 59%
JNK1
  inhibition at 1 µM: ≥ 59%
CHEK2
  inhibition at 1 µM: 40 to 59%
STK39
  inhibition at 1 µM: 40 to 59%
INSR
  inhibition at 1 µM: 40 to 59%
HUNK
  inhibition at 1 µM: 40 to 59%
MYLK
  inhibition at 1 µM: ≥ 59%
PLK4
  inhibition at 1 µM: 40 to 59%
JNK2
  inhibition at 1 µM: 40 to 59%
CAMK2D
  inhibition at 1 µM: 40 to 59%
LRRK2
  inhibition at 1 µM: 40 to 59%
PAK2
  inhibition at 1 µM: ≥ 59%
GAK
  inhibition at 1 µM: ≥ 59%
ERK5
  inhibition at 1 µM: 40 to 59%
ALK(C1156Y)
  inhibition at 1 µM: ≥ 59%
CSNK1A1
  inhibition at 1 µM: 40 to 59%
[4]
  MS (1 μM) (% remaining during 30 min) Rat: 20%
[5]; 45 and 60 mg/kg PO BID×9 days
  protective effects on IMQ-induced psoriasis-like inflammation (ear swelling): significantly (p<0.05) protective effects
[5]; 45 and 60 mg/kg oral gavage BID 9 days, Day 8 to Day 10, vs vehicle group
  IMQ-induced ear swelling: statistically (p<0.05) significant inhibition
